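Method: 48-hour compound exposure of cells in 96-well plates, five concentrations, linear interpolation of endpoints. GI50 is the concentration that inhibits growth by half. TGI is the concentration that stops growth completely.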
Assays:
Test in all cases: growth of human tumour cells (NCI), 48 h
[1] = system: 786-0 renal
[2] = system: A498 renal
[3] = system: A549 NSCLC
[4] = system: ACHN renal
[5] = system: BT-549 breast
[6] = system: CAKI-1 renal
[7] = system: CCRF-CEM leukemia
[8] = system: COLO 205 colon
[9] = system: DU-145 prostate
[10] = system: EKVX NSCLC
[11] = system: HCC-2998 colon
[12] = system: HCT-116 colon
[13] = system: HCT-15 colon
[14] = system: HL-60(TB) leukemia
[15] = system: HOP-62 NSCLC
[16] = system: HOP-92 NSCLC
[17] = system: HS 578T breast
[18] = system: HT29 colon
[19] = system: IGROV1 ovarian
[20] = system: K-562 leukemia
[21] = system: KM12 colon
[22] = system: LOX IMVI melanoma
[23] = system: M14 melanoma
[24] = system: MALME-3M melanoma
[25] = system: MCF7 breast
[26] = system: MDA-MB-231 breast
[27] = system: MDA-MB-435
[28] = system: MOLT-4 leukemia
[29] = system: NCI-H226 lung
[30] = system: NCI-H23 lung
[31] = system: NCI-H460 lung
[32] = system: NCI-H522 lung
[33] = system: NCI/ADR-RES ovarian
[34] = system: OVCAR-3 ovarian
[35] = system: OVCAR-4 ovarian
[36] = system: OVCAR-5 ovarian
[37] = system: OVCAR-8 ovarian
[38] = system: PC-3 prostate
[39] = system: RPMI-8226 leukemia
[40] = system: SF-268 CNS
[41] = system: SF-295 CNS
[42] = system: SF-539 CNS
[43] = system: SK-MEL-2 melanoma
[44] = system: SK-MEL-28 melanoma
[45] = system: SK-MEL-5 melanoma
[46] = system: SK-OV-3 ovarian
[47] = system: SN12C renal
[48] = system: SNB-19 CNS
[49] = system: SNB-75 CNS
[50] = system: SR leukemia
[51] = system: SW-620 colon
[52] = system: T-47D breast
[53] = system: TK-10 renal
[54] = system: U251 CNS
[55] = system: UACC-257 melanoma
[56] = system: UACC-62 melanoma
[57] = system: UO-31 renal

Work on `CN1CCN(c2ccc(Nc3nc(NCCCNS(=O)(=O)c4ccccc4)c4sccc4n3)cc2)CC1` yielded a GI50 [1] of 17.8 µM, a TGI [1] of 43.2 µM and a GI50 [2] of 21.9 µM. For the same molecule, the TGI [2] was 41.3 µM, the GI50 [3] was 19.3 µM and the TGI [3] was 48.8 µM. It also gave a GI50 [4] of 15.2 µM, a TGI [4] of 28.5 µM and a GI50 [5] of 17.1 µM. The TGI [5] was 37.4 µM, the GI50 [6] was 16.4 µM and the TGI [6] was 30 µM. The GI50 [7] was 30.2 µM, the TGI [7] was > 100 µM and the GI50 [8] was 15.5 µM. For the same molecule, the TGI [8] was 31.4 µM, the GI50 [9] was 15.4 µM and the TGI [9] was 28.7 µM. It also gave a GI50 [10] of 23.5 µM, a TGI [10] of 64 µM and a GI50 [11] of 17.5 µM. For the same molecule, the TGI [11] was 35.6 µM, the GI50 [12] was 7.46 µM and the TGI [12] was > 100 µM. The GI50 [13] was 3.93 µM, the TGI [13] was 18.8 µM and the GI50 [14] was 14.9 µM. For the same molecule, the TGI [14] was 53.6 µM, the GI50 [15] was 17 µM and the TGI [15] was 33.2 µM. For the same molecule, the GI50 [16] was 12.3 µM, the TGI [16] was 58.6 µM and the GI50 [17] was 13.5 µM. It also gave a TGI [17] of 38.5 µM, a GI50 [18] of 5.79 µM and a TGI [18] of 33.2 µM. For the same molecule, the GI50 [19] was 13.3 µM, the TGI [19] was 27.3 µM and the GI50 [20] was 3.18 µM. For the same molecule, the TGI [20] was > 100 µM, the GI50 [21] was 20.4 µM and the TGI [21] was 65.7 µM. It also gave a GI50 [22] of 5.9 µM, a TGI [22] of 20.2 µM and a GI50 [23] of 3.9 µM. The TGI [23] was 14.3 µM, the GI50 [24] was 13.3 µM and the TGI [24] was 26.2 µM. It also gave a GI50 [25] of 9.12 µM, a TGI [25] of 21.5 µM and a GI50 [26] of 12.8 µM. It also gave a TGI [26] of 30 µM, a GI50 [27] of 14.2 µM and a TGI [27] of 27.2 µM. It also gave a GI50 [28] of 5.46 µM, a TGI [28] of 46.6 µM and a GI50 [29] of 13.5 µM. For the same molecule, the TGI [29] was 26.8 µM, the GI50 [30] was 15.8 µM and the TGI [30] was 31.6 µM. It also gave a GI50 [31] of 16.4 µM, a TGI [31] of 32.9 µM and a GI50 [32] of 14.6 µM. For the same molecule, the TGI [32] was 30.3 µM, the GI50 [33] was 21.2 µM and the TGI [33] was 54.8 µM. It also gave a GI50 [34] of 21.1 µM, a TGI [34] of 55.6 µM and a GI50 [35] of 13.4 µM. For the same molecule, the TGI [35] was 48.6 µM, the GI50 [36] was 16.6 µM and the TGI [36] was 44.4 µM. It also gave a GI50 [37] of 15.5 µM, a TGI [37] of 48.5 µM and a GI50 [38] of 19.9 µM. It also gave a TGI [38] of 77.4 µM, a GI50 [39] of 7.3 µM and a TGI [39] of 55.4 µM. For the same molecule, the GI50 [40] was 15.3 µM, the TGI [40] was 63.1 µM and the GI50 [41] was 16 µM. It also gave a TGI [41] of 30.2 µM, a GI50 [42] of 11.8 µM and a TGI [42] of 24 µM. The GI50 [43] was 17.5 µM, the TGI [43] was 32.3 µM and the GI50 [44] was 13.5 µM. It also gave a TGI [44] of 26.3 µM, a GI50 [45] of 16.6 µM and a TGI [45] of 30.6 µM. It also gave a GI50 [46] of 29.6 µM, a TGI [46] of 81.3 µM and a GI50 [47] of 14.8 µM. For the same molecule, the TGI [47] was 31.1 µM, the GI50 [48] was 25.6 µM and the TGI [48] was 67.7 µM. It also gave a GI50 [49] of 10.3 µM, a TGI [49] of 22 µM and a GI50 [50] of 2.83 µM. The TGI [50] was > 100 µM, the GI50 [51] was 12.4 µM and the TGI [51] was 27.6 µM. It also gave a GI50 [52] of 18.3 µM, a TGI [52] of 46.5 µM and a GI50 [53] of 23.7 µM. The TGI [53] was 48.6 µM, the GI50 [54] was 7.64 µM and the TGI [54] was 52.4 µM. The GI50 [55] was 16.2 µM, the TGI [55] was 32.8 µM and the GI50 [56] was 12.9 µM. It also gave a TGI [56] of 25.7 µM, a GI50 [57] of 12.5 µM and a TGI [57] of 25.5 µM.
